Consider 11 compounds from PubChem BioAssay (NCI).

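Step 1: Grow cells in 96-well plates. Step 2: Expose to compound for 48 hours at 5 concentrations. Step 3: Interpolate endpoints linearly; if unreached, use highest concentration. GI50: concentration for 50% inhibition of growth. TGI: total growth inhibition.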 Some results are limits rather than exact numbers.

Assay in all cases: inhibition of tumour cell growth, NCI panel, 48 h
For test [1], the system named is A498 renal.
For test [2], the system named is ACHN renal.
The subject of test [3] is DU-145 prostate.
The test system of test [4] is HCT-116 colon.
The subject of test [5] is HS 578T breast.
In test [6] the test system is MCF7 breast.
Test [7] relates to NCI-H226 lung.
The test system of test [8] is RXF 393 renal.
Test [9] relates to SF-295 CNS.
The subject of test [10] is SW-620 colon.

Consider `CCSC[C@@H]1C[C@](O)(c2ccccc2)[C@@H](c2ccccc2)O1`, for which the GI50 in test [1] is 69.9 µM; in test [2], more than 88 µM; in test [3] it was more than 100 µM; in test [4] it was 58.6 µM; in [5], 50.9 µM; in test [6] it was 74.6 µM. Besides, the GI50 in [7] was more than 77.1 µM; in test [8], 76.2 µM; in test [9] it was 46.2 µM; in [10], more than 100 µM. The TGI is more than 100 µM in [1]; more than 100 µM in test [2]; more than 100 µM in [3]; more than 100 µM in test [4]; more than 97.1 µM in [5]; more than 100 µM in test [6]. Moreover, the TGI in [7], in [8], in [9] and in [10] was more than 100 µM throughout.

`S=c1ssnc1-c1cc2ccccc2o1`: the GI50 in [1] is 20 µM; in test [2], 15.2 µM; in test [3], 7.35 µM; in test [4], 9.3 µM; in test [5], 18.5 µM; in test [6], 9.55 µM. The GI50 in [7] was 23.2 µM; in [8] it was 7.78 µM; in test [9], 14.3 µM; in test [10], 12.7 µM. Moreover, the TGI in test [1] worked out at 38.8 µM; in test [2], 38.8 µM; in test [3], 20.4 µM; in [4], 36.8 µM; in [5], 80.7 µM; in [6] it was 32.1 µM. Besides, the TGI in test [7] was found to be 54.4 µM; in test [8] it was 23.3 µM; in test [9], 33.8 µM; in test [10], 27.6 µM.

`O=C(O)CNc1ccc2c(c1)Cc1cc(Br)ccc1-2`: the TGI is 85.8 µM in test [1]; more than 100 µM in [2]; 82.4 µM in test [3]; more than 49.1 µM in test [4]; 36.4 µM in test [5]; more than 100 µM in test [6]. The TGI in [7] was more than 79.3 µM; in test [8], more than 94.6 µM; in test [9], 97 µM; in [10], more than 96.8 µM.

For the compound `COC(=O)c1c(C)nc(C)c2c1C(=O)C(Br)=C(NCc1ccccc1)C2=O`, the GI50 in test [1] was 4.48 µM; in test [2], 3.08 µM; in test [3], 4.26 µM; in test [4] it was 2.5 µM; in test [5], 10.8 µM; in test [6], 1.3 µM. Further, the GI50 in test [7] is 4.01 µM; in test [8], 3.08 µM; in test [9], 3.04 µM; in test [10] it was 3.39 µM. In addition, the TGI in test [1] was 17.3 µM; in test [2], 9.97 µM; in test [3], 13 µM; in [4], 7.22 µM; in [5], more than 100 µM; in [6] it was 3.29 µM. Moreover, the TGI is 18 µM in test [7], 9.69 µM in test [8], 10.4 µM in test [9] and 10.7 µM in test [10].

On to `Nc1ncn([C@H]2CC(O)[C@@H](CO)S2)c(=O)n1` (stereo not given in full), for which the GI50 is 1.99 µM in test [1]; 0.266 µM in test [2]; 2.27 µM in [3]; 0.371 µM in test [4]; 39.3 µM in test [5]; 0.382 µM in test [6]. In addition, the GI50 was 20.3 µM in test [7], 11.1 µM in test [8], 35.5 µM in test [9] and 1.48 µM in test [10]. The TGI in [1] was 58.1 µM; in test [2] it was more than 100 µM; in [3], more than 100 µM; in test [4], more than 100 µM; in test [5], more than 100 µM; in [6] it was more than 100 µM. In addition, the TGI in [7], in test [8], in [9] and in test [10] was more than 100 µM each time.

In the case of `CCCN1C(=O)/C(=C/c2ccc(SC(F)(F)F)cc2)SC1=Nc1ccc(OC)cc1`, the GI50 in test [1] was 11 µM; in test [2], 5.53 µM; in test [3], 21.8 µM; in [4] it was 6.29 µM; in test [5] it was 14 µM; in test [6] it was 15.6 µM. For the same compound, the GI50 in test [7] is 14.8 µM; in test [8], 5.35 µM; in test [9], 9.32 µM; in [10], 38.6 µM. The TGI in test [1] is 21.9 µM; in test [2], 11.8 µM; in test [3] it was more than 50 µM; in test [4], 17.5 µM; in test [5] it was 33.4 µM; in test [6], more than 50 µM. In addition, the TGI was more than 50 µM in [7], 16.9 µM in test [8], 38.1 µM in [9] and more than 50 µM in test [10].

On to `COc1ccc(-c2nsc3c2NC(=O)CC3c2ccsc2)cc1` (stereo not given), for which the GI50 was 0.171 µM in test [1]; 1.06 µM in test [2]; 0.422 µM in [3]; 0.126 µM in test [4]; 0.269 µM in test [5]; 0.32 µM in [6]. Moreover, the GI50 in test [7] was 2.15 µM; in test [8] it was 0.367 µM; in test [9], 0.211 µM; in test [10] it was 0.0684 µM. Besides, the TGI in [1] was 0.808 µM; in test [2], more than 100 µM; in test [3] it was 2.87 µM; in [4] it was more than 100 µM; in test [5] it was more than 100 µM; in test [6], more than 100 µM. For the same compound, the TGI in [7] is 16.9 µM; in test [8], more than 100 µM; in [9], more than 51.5 µM; in test [10] it was more than 100 µM.

As for `Cc1ccc(-c2nc(NCCOCCOCCN)nc(N3CCN(c4ccccn4)CC3)n2)cc1`, the GI50 in test [1] was 5.94 µM; in [2], 14.7 µM; in test [3], 16.6 µM; in test [4], 10 µM; in test [5], 15.9 µM; in [6] it was 12.7 µM. The GI50 in test [7] is 17.4 µM; in test [8], 13 µM; in [9], 18.4 µM; in test [10] it was 11 µM. In addition, the TGI in test [1] worked out at 21.7 µM; in test [2] it was 32.4 µM; in [3], 31.1 µM; in test [4], 27.8 µM; in test [5], 42.3 µM; in test [6], 26.9 µM. Moreover, the TGI in test [7] turned out to be 34.3 µM; in test [8] it was 28.2 µM; in test [9], 38.6 µM; in test [10] it was 29.2 µM.

As to `COc1cc(C2CC(c3ccccc3)=NN2C=O)ccc1Oc1ccnc2cc(Cl)ccc12` (stereo not given), the GI50 in test [1] was 6.9 µM; in test [2], 17.4 µM; in test [3], more than 100 µM; in [4], 6.07 µM; in [5], 5.6 µM; in test [6], 5.7 µM. Also, the GI50 in test [7] is 5.24 µM; in test [8] it was 15.4 µM; in test [9], 5.58 µM; in test [10], more than 100 µM. Moreover, the TGI in test [1], in test [2], in [3], in [4], in [5] and in [6] was more than 100 µM throughout. For the same compound, the TGI was more than 100 µM in test [7], 47.6 µM in [8], 86.2 µM in test [9] and more than 100 µM in test [10].

As for `Cn1c(=O)c(-c2ccccc2Cl)cc2cnc(NC3CCOCC3)nc21`, the GI50 was 3.34 µM in [1]; 4.64 µM in test [2]; 12.3 µM in [3]; 8.05 µM in test [4]; 9.12 µM in test [5]; more than 25 µM in test [6]. For the same compound, the GI50 in test [7] was 12.3 µM; in test [8], 5.19 µM; in test [9], 12.1 µM; in test [10], 14.8 µM. Further, the TGI in test [1] was 15.5 µM; in test [2], more than 25 µM; in test [3], more than 25 µM; in [4], more than 25 µM; in test [5], more than 25 µM; in test [6], more than 25 µM. Besides, the TGI in test [7] was more than 25 µM; in [8], more than 23.9 µM; in [9], more than 25 µM; in [10] it was more than 25 µM.

As for `Cc1cc(NC(=O)NCc2ccc(N3C(N)=NC(N)=NC3(C)C)cc2)ccc1S(=O)(=O)F`, the GI50 in test [1] was more than 46.4 µM; in [2], 46.2 µM; in test [3], 1.35 µM; in test [4] it was 0.429 µM; in test [5], more than 48.7 µM; in test [6] it was 1.93 µM. For the same compound, the GI50 in [7] is more than 61.2 µM; in test [8] it was 51.2 µM; in test [9], 1.57 µM; in test [10], 0.491 µM. For the same compound, the TGI in test [1], in test [2], in [3], in test [4], in test [5] and in test [6] was more than 100 µM throughout. In addition, the TGI in test [7], in [8], in test [9] and in test [10] was more than 100 µM each time.
